Test results as given in patent publication US9114177B2, “Block copolymer having phenylboronic acid group introduced therein, and use thereof” (THE UNIVERSITY OF TOKYO, priority 2011, dated 2015).

What was measured:
[1] = siRNA diffusion time of block copolymer/siRNA complexes in serum solution (complex stability); assay type: physicochemical; settings: siRNA not mixed with block copolymer, 50 nM, serum solution (10% FBS)
Method: A variety of block copolymers having different amino acid polymerization degrees and FPBA group contents were prepared as mentioned in Sections (1-i) to (1-iii) and (2-i) to (2-iii). It should be noted that PEG having a molecular weight (Mw) of 12,000 was used as methoxy-PEG-NH2. The block copolymers were mixed with siRNA fluorescently labeled with Cy3 so as to achieve an N/P ratio of 8. The resultant mixtures were left to stand still in a refrigerator for 1 to 2 hours and diluted with a serum solution (150 mM NaCl, 10 mM Hepes, 10% FBS) so as to achieve an siRNA concentration of 50 nM. The resultant diluted solutions were left to stand still at room temperature for about 1 hour, and the siRNA diffusion time was measured with a confocal laser scanning microscope (manufactured by Carl Zeiss, product name “LSM510”) (10 sec×10 times). It should be noted that, when the measurement was carried out in the same manner as above except that siRNA was not mixed with the block copolymer, the diffusion time (diffusion time of siRNA alone) was 157.5 μsec. It should be noted that GL3-siRNA was used as the siRNA.

[2] = Blood retention properties of complex; assay type: in vivo; settings: mice, tail vein, 20 μg siRNA
Method: The block copolymer (PEG-PLL 12-23/43) and Cy5-GL3-siRNA were added to a 10 mM HEPES buffer (pH 7.3) so as to achieve an N/P ratio of 8 and an siRNA concentration of 7.5 μM, and the resultant was mixed and left to stand still for about 1 to 2 hours at room temperature to prepare a complex solution. The complex solution or a solution of the siRNA (10 mM HEPES buffer) was administered to the tail veins of mice (female Balb/C nude, 6-week-old, N=4) so that the dose was 20 μg of the siRNA, and the amount of the siRNA remaining in blood was determined over time.

[3] = cited from earlier work

| Compound | diffusion time of siRNA alone [1] [μsec] | siRNA remaining in blood at 10 minutes after administration [2] | siRNA remaining in blood at 1 hour after administration [2] | pKa [3] |
| --- | --- | --- | --- | --- |
| GL3-siRNA: siRNA for firefly luciferase, SEQ ID NO: 5 and 6, fluorescently labelled (Cy3 or Cy5), tested alone (chain 1 CUUACGCUGACUACUUCGAUU; chain 2 UCGAAGUACUCAGCGUAAGUU; sense strand 5' end labeled with Cy3 (or Cy5), further chemistry not given here) | 157.5 | about 10% | almost no siRNA remained | – |
| OB(O)c1ccccc1 [phenylboronic acid] | – | – | – | 8 to 9 |
